# Measurements as given in patent US11890266B2 (University of Canberra, priority 2016, dated 2024).
# Tests used:
# [1] = test system: form-deprivation myopia (FDM) in chick eyes fitted with a translucent diffuser; assay: Form-deprivation myopia (FDM) induced by translucent diffuser, five day treatment; axial length and refraction; type: in vivo, White Cockerel chickens; details: Example 15, five days; for effect of intravitreal injection versus topical administration on refraction and axial elongation: daily administration; for axial elongation in comparison with animals fitted with a translucent diffuser only (G2) / myopic shift in refraction in comparison with animals fitted with a translucent diffuser only (G2): ADTN 1 mM, atropine 2 mM, pirenzepine 16 mM
# Procedure: For the drug treatments, the compositions were administered under light isoflurane anesthesia using intravitreal injection or topical administration.
# Intravitreal injection was performed as follows: Using a 30 gauge needle attached to a Hamilton syringe, 10 μL (0.01 mL) of the test composition was injected into the vitreous chamber of the eye once daily.
# Topical administration was performed as follows: Two drops of 40 μL (two drops of 0.04 mL, or 0.08 mL total) of the test composition was applied to the corneal surface of the eye using an eye drop dispenser. Drops were applied to the chicks twice daily.
# To determine changes in the rate of eye growth and the development of myopia, changes in axial length and refraction were assessed. Myopia is associated with excessive elongation of the eye in the axial direction relative to normal growth rates. Such excessive axial elongation leads to a relative myopic change in refraction. Axial length and refraction were measured using A-scan ultrasonography (Biometer AL-100; Tomey Corporation, Nagoya, Japan) and automated infrared photo-retinoscopy respectively. Statistical analysis of changes in both refraction and axial length between groups involved a one-way ANOVA test followed by a Student's T-test with Bonferroni correction. All data are presented as the mean±the […] of the mean (SEM). […]
# 70 male White Cockerel chickens were randomly assigned to one of 14 treatment groups as defined below (n=5 per group) and were treated for a five day period. G1-G14 represent the labelling system used in FIGS. 11 and 12.
# ADTN compositions were prepared by dissolving ADTN in a solution containing 0.1% ascorbic acid in 1×PBS to a final concentration of 1 mM (0.03% w/v), and adjusting the pH to 7. Atropine and pirenzepine compositions were prepared by dissolving atropine (in the form of atropine sulfate salt monohydrate) or pirenzepine (in the form of pirenzepine dihydrochloride) in distilled water to a final concentration of 2 mM (0.14% w/v) and 16 mM (0.7% w/v), respectively, and adjusting the pH to 7.
# Administration of test compositions and measurement of ocular parameters was performed in accordance with that described in Example 4.
# [2] = test system: form-deprivation myopia (FDM) in chick eyes fitted with a translucent diffuser; assay: Safety and efficacy of topical levodopa in form-deprivation myopia over a four week period; type: in vivo, White Cockerel chickens; details: topical 0.3% w/v (15 mM) levodopa composition of Example 1, twice daily, four weeks
# Procedure: Male White Cockerel chickens were kept under normal laboratory light (500 lux, fluorescent lights) on a 12:12 hour light:dark cycle with lights on at 9:30 am and off at 9:30 pm. In all chicks, left eyes were treated experimentally while right eyes remained untreated to serve as a contralateral control. Chicks were randomly assigned to one of four groups (n=6 for each group) and treated over the four week period under the following experimental conditions: • 1. […] Form-deprivation myopia (FDM): Chicks were fitted with a translucent diffuser over their left eye to induce FDM, receiving no further treatment • 3.
# Administration of the test compositions was performed in accordance with that described in Example 4.
# To determine changes in the rate of eye growth and the development of myopia, axial length and refraction were measured using A-scan ultrasonography (Biometer AL-100; Tomey Corporation, Nagoya, Japan) and automated infrared photo-retinoscopy, respectively. Ocular measurements (axial length and refraction) were made on day one (prior to the commencement of experimentation) and every seven days for four weeks.
# A multivariate analysis of variance (MANOVA) with repeated measures design was used to compare the effect of the different treatment regimens over time.
# [3] = daily topical administration, levodopa 0.03% w/v in combinations
SMILES,effect of intravitreal injection versus topical administration on refraction and axial elongation [1],axial elongation in comparison with animals fitted with a translucent diffuser only (G2) ([1]; daily intravitreal injection),myopic shift in refraction in comparison with animals fitted with a translucent diffuser only (G2) ([1]; daily intravitreal injection),"axial elongation in comparison with animals fitted with a translucent diffuser only (G2) [1, 3]","myopic shift in refraction in comparison with animals fitted with a translucent diffuser only (G2) [1, 3]",axial elongation in comparison to diffusers in the absence of levodopa treatment [2]
"NC1CCc2cc(O)c(O)cc2C1 (stereo not shown) [ADTN, 2-amino-6,7-dihydroxy-1,2,3,4-tetrahydronaphthalene]",intravitreal injection having a greater effect than topical administration,decreased axial elongation,significantly inhibited the myopic shift in refraction,decreased axial elongation,significantly inhibited the myopic shift in refraction,
CN1CCN(CC(=O)N2c3ccccc3C(=O)Nc3cccnc32)CC1 [pirenzepine],greater when intravitreally administered,decreased axial elongation,significantly inhibited myopic shifts in refractive development,decreased axial elongation,significantly inhibited myopic shifts in refractive development,
N[C@@H](Cc1ccc(O)c(O)c1)C(=O)O [levodopa],,,,,,decreased axial elongation
CN1[C@@H]2CC[C@H]1C[C@@H](OC(=O)C(CO)c1ccccc1)C2 (stereo partly shown) [atropine],intravitreal injection having a greater effect than topical administration,decreased axial elongation,significantly inhibited the myopic shift in refraction,decreased axial elongation,significantly inhibited the myopic shift in refraction,
